Test results as given in ChEMBL document CHEMBL4000198, “Triterpene saponins and megastigmane glucosides from Camellia bugiamapensis” (Bioorg Med Chem Lett, 2017).

Columns and labels:
RAW264.7 [1] = assay: Inhibition of LPS-induced NO production in mouse RAW264.7 cells pretreated for 30 mins followed by LPS challenge measured after 12 hrs by Griess assay; format: functional, cell-based
RAW264.7 [2] = assay: Cytotoxicity against mouse RAW264.7 cells by MTT assay; format: cell-based
RAW264.7 [3] = assay: Inhibition of LPS-induced NO production in mouse RAW264.7 cells pretreated for 30 mins followed by LPS challenge measured after 24 hrs by Griess assay; format: functional, cell-based

IC50 (RAW264.7 [1]) [µM] | IC50 (RAW264.7 [3]) [µM] | SMILES | Activity (RAW264.7 [2])
2.2 | – | COc1cc(O)cc(O)c1C(=O)/C=C/c1ccccc1 [CARDAMOMIN] | –
– | 49.4 | COC(=O)[C@H]1O[C@@H](O[C@H]2CC[C@]3(C)[C@H]4CC=C5[C@@H]6CC(C)(C)CC[C@]6(CO)[C@H](O)C[C@@]5(C)[C@]4(C)CC[C@H]3C2(C)C)[C@H](O[C@@H]2O[C@@H](C)[C@H](O)[C@@H](O)[C@H]2O)[C@@H](O)[C@@H]1O | Non-Toxic
